Test results reported in paper PMC11240924, “Isolation, Identification, and Biological Activities of a New Chlorin e6 Derivative” (International Journal of Molecular Sciences, 2024).

Assays:
AsPC-1 = test: MTT cytotoxicity (PDT and dark), AsPC-1; assay type: cell-based, Human; conditions: Homo sapiens, ASPC1, light or radiation study, 3 h exposure, 660 nm laser 0.5 J/cm^2, MTT after 24 h
Source text: (§1) B16F10 (KCLB80008), MIA PaCa-2 (KCLB21420), PANC-1 (KCLB21469), HT-29 (KCLB30038), AsPC-1 (KCLB21682), and Raw 264.7 (KCLB40071) cells were procured from the Korean Cell Line Bank (KCLB, Seoul, Republic of Korea). AsPC-1 and RAW264.7 were thawed and maintained in RPMI-1640 media (Life Technologies corporation, Carlsbad, CA, USA) supplemented with 10% fetal bovine serum (Life Technologies corporation, USA) and 1% penicillin and streptomycin (Life Technologies corporation, USA), while MIA PaCa-2, PANC-1, HT-29, and B16F10 cell lines were cultured in DMEM (Life technologies corporation, USA) containing 10% fetal bovine serum and 1% penicillin and streptomycin. All the cells were cultured at 37 °C in a 5% CO2 incubator.
(§2) After seeding B16F10 or MIA PaCa-2 at a density of 5 × 10^3 cells/well and PANC-1, HT-29, or AsPC-1 at a density of 1 × 10^4 cells/well in 96-well plates, the cells were incubated overnight at 37 °C in a CO2 incubator. The cells were exposed to different doses of either chlorin e6 or rhodin g7 7^1-ethyl ester (0, 2.5, 5, 10, 20, 40, and 80 µM) for 3 h. After the incubation, the cells were either subjected to a 660 nm laser with a power density of 50 mW (0.5 J/cm^2) or not and were further incubated for 24 h at 37 °C. Moreover, the MTT assay was used to analyze the cell viability. The absorbance values of 540 nm were then measured using a microplate reader (Multiskan GO, Thermo Fisher Scientific, Oy, Ratastie 2, FI-01620 Vantaa, Finland).

[1] = MTT cytotoxicity (PDT and dark), AsPC-1; assay type: cell-based, Human; conditions: human, AsPC-1 cells, no illumination, MTT after 24 h
Source text: as §1, §2

[2] = MTT cytotoxicity (PDT and dark), MIA PaCa-2; assay type: cell-based, Human; conditions: human, MIA PaCa-2 cells, no illumination, MTT after 24 h
Source text: as §1, §2

MIA PaCa-2 = test: MTT cytotoxicity (PDT and dark), MIA PaCa-2; assay type: cell-based, Human; conditions: Homo sapiens, light or radiation study, 3 h exposure, 660 nm laser 0.5 J/cm^2, MTT after 24 h
Source text: as §1, §2

[3] = MTT cytotoxicity (PDT and dark), B16F10; assay type: cell-based, Murine; conditions: mouse, B16F10 cells, no illumination, MTT after 24 h
Source text: as §1, §2

B16F10 = test: MTT cytotoxicity (PDT and dark), B16F10; assay type: cell-based, Murine; conditions: Mus musculus, B16-F10, light or radiation study, 3 h exposure, 660 nm laser 0.5 J/cm^2, MTT after 24 h
Source text: as §1, §2

MIA-PaCa-2 cells = test: Detection of ROS with DCFH-DA after PDT; assay type: cell-based, Human; conditions: for ROS level after PDT (DCFH-DA): MIA-PaCa-2, 1, 5, 10, 20, 40, and 80 μM, 3 h, laser
Protocol: MIA-PaCa-2 cells (density: 5 × 10^3 cells/well) were seeded onto 96-well plates and incubated in a complete medium for 24 h at 37 °C. Then, the medium was replaced with a fresh culture medium containing chlorin e6 or rhodin g7 7^1-ethyl ester at different concentrations (1, 5, 10, 20, 40, and 80 μM) and then incubated for 3 h at 37 °C. After incubation, the cells were washed three times with PBS, and the cells were irradiated using a 630 nm laser at a power of 100 mW/cm^2 for 300 s. After irradiation, a fresh culture medium containing 20 μM dichlorodihydrofluorescin diacetate (DCFH-DA) was added, and the cells were incubated for another 20 min. Fluorescence detection of DCFH-DA was performed via the fluorescence microplate reader using the Spark Multimode Microplate Reader (Tecan Trading AG, Männedorf, Switzerland).

[4] = MTT cytotoxicity (PDT and dark), RAW264.7 normal cell line; assay type: cell-based, Murine; conditions: mouse, RAW264.7 cells (normal macrophage), RAW264.7 normal macrophage
Source text: as §1, §2

HT29 = test: MTT cytotoxicity (PDT and dark), HT29; assay type: cell-based, Human; conditions: Homo sapiens, HT-29, light or radiation study, 3 h exposure, 660 nm laser 0.5 J/cm^2, MTT after 24 h
Source text: as §1, §2

[5] = MTT cytotoxicity (PDT and dark), HT29; assay type: cell-based, Human; conditions: human, HT-29 cells, no illumination, MTT after 24 h
Source text: as §1, §2

BV2 cells = test: Cellular uptake (plate reader and FOBI), BV2; assay type: cell-based; conditions: 3 h; for fluorescence intensity of treated cells compared to control (uptake): BV2, 100 μΜ
Protocol: A quantitly of 5 × 10^5 of MIA PaCa-2 and 2 × 10^5 of BV2 cells per well were seeded in a 6-well plate and were treated with or without chlorin e6 or rhodin g7 7^1-ethyl ester (10 and 100 μΜ). After 3 h, the cells were harvested and washed twice with 1 × phosphate buffered saline (DPBS) to remove the remaining chlorin e6 or rhodin g7 7^1-ethyl ester from the culture media and cell surfaces. The cells from each well were resuspended in 1 mL of 1 × DPBS and measured using FOBI and a plate reader. chlorin e6 or rhodin g7 7^1-ethyl ester-treated cells were divided into triplicate wells of a black-walled 96-well plate, each containing 100 µL. The measurement was taken immediately after aliquoting using a Spark Multimode Microplate Reader (Tecan Trading AG, Männedorf, Switzerland) for spectroscopy. The fluorescence was measured using excitation and emission peaks of 405 nm and 500–800 nm. For the FOBI analysis, 700 µL of chlorin e6 or rhodin g7 7^1-ethyl ester-treated cells was added to the e-tubes, and bioimaging was performed immediately using the fluorescence-labeled organism bioimaging instrument (FOBI) system (Cellgentek, Daejeon, Republic of Korea). Each image was exposed for 0.3 s, with a 405 nm wavelength LED, and an emmission light of 502 nm. The results were further quantitatively measured using the “NEOimage FOBI” software.

[6] = 660 nm laser 0.5 J/cm^2, MTT after 24 h, read-out: IC50, PDT cytotoxicity
[7] = no illumination, MTT after 24 h, read-out: IC50, dark cytotoxicity

fluorescence intensity relative to chlorin e6 (uptake) (BV2 cells; BV2, FOBI system, 10 μΜ) [times]	fluorescence intensity relative to chlorin e6 (uptake) (BV2 cells; BV2, FOBI system, 100 μΜ) [times]	fluorescence intensity relative to chlorin e6 (uptake) (BV2 cells; BV2, plate reader, 10 μΜ) [times]	fluorescence intensity relative to chlorin e6 (uptake) (BV2 cells; BV2, plate reader, 100 μΜ) [times]	Structure (SMILES)	IC50 (AsPC-1) [µM]	IC50 [1] [µM]	IC50 [2] [µM]	IC50 (MIA PaCa-2) [µM]	IC50 [3] [µM]	IC50 (B16F10) [µM]	ROS level after PDT (DCFH-DA) (MIA-PaCa-2 cells)	IC50 [4, 6] [µM]	IC50 [4, 7] [µM]	IC50 (HT29) [µM]	IC50 [5] [µM]	fluorescence intensity of treated cells compared to control (uptake) (BV2 cells)	ROS production compared to chlorin e6-PDT (MIA-PaCa-2 cells; MIA-PaCa-2, all concentrations (1-80 μM))
				C=Cc1c(C)c2cc3nc(c(CC(=O)O)c4[nH]c(cc5nc(cc1[nH]2)C(C)=C5CC)c(C)c4C(=O)O)[C@@H](CCC(=O)O)[C@@H]3C [chlorin e6]	30.4	248	430	23.3	556	33.6	dose-dependent increase in ROS	45.4	456	28.1	543	significant increase in fluorescence intensity	
1.1	1.4	2.2	2	C=Cc1c(C)c2cc3nc(c(CC(=O)O)c4[nH]c(cc5nc(cc1[nH]2)C(C(=O)OCC)=C5CC)c(C)c4C(=O)O)[C@@H](CCC(=O)O)[C@@H]3C [rhodin g7 7^1-ethyl ester]	49.1	395	161	7.6	262	12.3	dose-dependent increase in ROS	55.2	466	30.1	223	significant increase in fluorescence intensity	likely to produce more ROS than chlorin e6-PDT
